Reference: ChEMBL document CHEMBL1122556, “Design, synthesis, and binding characteristics of an opiate receptor mimetic peptide” (J Med Chem, 1984)
Residues, ends and D or L forms follow the SMILES beside them. *: point of attachment. Desaminotyrosyl = O=C(CCc1ccc(O)cc1)*; Hydrocinnamoyl = O=C(CCc1ccccc1)*

experiment: Compound was evaluated for the binding strength to receptor Mimetic peptide (RMP) at 5 degree celsius, Ki was determined from its potency in displacing [Leu]-enkephalin binding.

SMILES | Ki
CSCC[C@H](NC(=O)[C@H](Cc1ccccc1)NC(=O)CNC(=O)CNC(=O)[C@@H](N)Cc1ccc(O)cc1)C(=O)O | 49.5 µM
CC(C)C[C@H](NC(=O)[C@H](Cc1ccccc1)NC(=O)CNC(=O)CNC(=O)[C@H](N)Cc1ccccc1)C(=O)O | 95.5 µM
CC(C)C[C@@H](NC(=O)[C@@H](Cc1ccccc1)NC(=O)CNC(=O)CNC(=O)[C@H](N)Cc1ccc(O)cc1)C(=O)O | 400 µM
CC(C)C[C@H](NC(=O)[C@H](Cc1ccccc1)NC(=O)CNC(=O)[C@@H](N)Cc1ccc(O)cc1)C(=O)O | 160 µM
N=C(N)NCCC[C@H](NC(=O)[C@H](Cc1ccccc1)NC(=O)[C@@H](N)Cc1cnc[nH]1)C(=O)N[C@@H](Cc1c[nH]c2ccccc12)C(=O)O | 5950 µM
CC(C)C[C@H](NC(=O)[C@H](Cc1ccccc1)NC(=O)CNC(=O)CNC(=O)CCc1ccc(O)cc1)C(=O)O (Desaminotyrosyl-GGFL-OH) | 205 µM
CC(C)C[C@H](NC(=O)[C@H](Cc1ccccc1)NC(=O)CNC(=O)CNC(=O)CCc1ccccc1)C(=O)O (Hydrocinnamoyl-GGFL-OH) | 620 µM
C=CCN1CC[C@]23c4c5ccc(O)c4O[C@H]2C(=O)CC[C@@]3(O)[C@H]1C5 [NALOXONE] | 7460 µM
